The values below come from patent US4481149A, “Fluorine-containing phenyl benzoate compounds, and their production and use” (Daikin Kogyo Co., Ltd., priority 1978, dated 1984).

Molecules are shown by their SMILES.

The series is described as follows: Temperature range of liquid crystal (MR). Format: physicochemical. As to conditions: Table 1.

Turning to `CCCCCc1ccc(C(=O)Oc2ccc(C(F)(F)F)cc2)cc1` [Example 2, p'-trifluoromethylphenyl p-n-pentylbenzoate], the “Temperature (MR) Range of liquid crystal” value (monotropic) turned out to be 66.8 °C.

For the compound `CCCCCCOc1ccc(C(=O)Oc2ccc(C(F)(F)F)cc2)cc1` [Example 8, p'-trifluoromethylphenyl p-n-hexyloxybenzoate], the “Temperature (MR) Range of liquid crystal” value was 74.7-76.5 °C.

For the compound `CCCCCCc1ccc(C(=O)Oc2ccc(C(F)(F)F)cc2)cc1` [Example 3, p'-trifluoromethylphenyl p-n-hexylbenzoate], where the note is “monotropic”, the “Temperature (MR) Range of liquid crystal” value is 58.8 °C.

On to `N#Cc1ccc(OC(=O)c2ccc(C(F)(F)C(F)(F)C(F)(F)C(F)(F)C(F)(F)C(F)(F)F)cc2)cc1` [Example 15], for which the “Temperature (MR) Range of liquid crystal” value was 99.8-123.3 °C.

Consider `CCCCCCCOc1ccc(C(=O)Oc2ccc(C(F)(F)F)cc2)cc1` [Example 9, p'-trifluoromethylphenyl p-n-heptyloxybenzoate], for which the “Temperature (MR) Range of liquid crystal” value is 62.9-74.3 °C.

`CCCCCCCc1ccc(C(=O)Oc2ccc(C(F)(F)F)cc2)cc1` [Example 4, p'-trifluoromethylphenyl p-n-heptylbenzoate]: the “Temperature (MR) Range of liquid crystal” value (monotropic) was 61.0 °C.

In the case of `CCCCCOc1ccc(C(=O)Oc2ccc(C(F)(F)F)cc2)cc1` [Example 7, p'-trifluoromethylphenyl p-n-pentyloxybenzoate], the “Temperature (MR) Range of liquid crystal” value (monotropic) stood at 78.5 °C.

Consider `CCCCCCCCc1ccc(C(=O)Oc2ccc(C(F)(F)F)cc2)cc1` [Example 5, p'-trifluoromethylphenyl p-n-octylbenzoate], for which the “Temperature (MR) Range of liquid crystal” value (monotropic) came to 58.5 °C.

Turning to `N#Cc1ccc(OC(=O)c2ccc(C(F)(F)C(F)(F)C(F)(C(F)(F)F)C(F)(F)F)cc2)cc1` [Example 12, p'-Cyanophenyl p-(3-trifluoromethylperfluorobutyl)benzoate], the “Temperature (MR) Range of liquid crystal” value is 90.0-98.5 °C.

With `Cc1ccc(OC(=O)c2ccc(C(F)(F)C(F)(F)C(F)(F)C(F)(F)C(F)(F)C(F)(F)C(F)(F)C(F)(F)F)cc2)cc1` [Example 17], under “monotropic”, the “Temperature (MR) Range of liquid crystal” value is 111-112 °C.

On to `N#Cc1ccc(OC(=O)c2ccc(C(F)(F)C(F)(F)C(F)(F)C(F)(F)C(F)(F)C(F)(F)C(F)(C(F)(F)F)C(F)(F)F)cc2)cc1` [Example 14], for which the “Temperature (MR) Range of liquid crystal” value was 130.7-140.7 °C.

Regarding `CCCCOc1ccc(C(=O)Oc2ccc(C(F)(F)F)cc2)cc1` [C4 H9 O / CF3], the “Temperature (MR) Range of liquid crystal” value (monotropic) was determined as 93.4 °C.

Consider `N#Cc1ccc(OC(=O)c2ccc(C(F)(F)C(F)(F)C(F)(F)C(F)(F)C(F)(C(F)(F)F)C(F)(F)F)cc2)cc1` [Example 13], for which the “Temperature (MR) Range of liquid crystal” value was 109.6-121.3 °C.

On to `O=C(Oc1ccc([N+](=O)[O-])cc1)c1ccc(C(F)(F)C(F)(F)C(F)(C(F)(F)F)C(F)(F)F)cc1` [Example 20], for which the “Temperature (MR) Range of liquid crystal” value was 68.6-79.2 °C.

Consider `N#Cc1ccc(OC(=O)c2ccc(C(F)(F)C(F)(F)C(F)(F)C(F)(F)C(F)(F)C(F)(F)C(F)(F)C(F)(F)F)cc2)cc1` [Example 16], for which the “Temperature (MR) Range of liquid crystal” value was 118-145 °C.

With `CCCCCCCCOc1ccc(C(=O)Oc2ccc(C(F)(F)F)cc2)cc1` [Example 10, p'-trifluoromethylphenyl p-n-octyloxybenzoate], the “Temperature (MR) Range of liquid crystal” value is 62.5-72.5 °C.

Regarding `O=C(Oc1ccc(C(F)(F)F)cc1)c1ccc(C(F)(F)C(F)(F)C(F)(C(F)(F)F)C(F)(F)F)cc1` [Example 19], the “Temperature (MR) Range of liquid crystal” value (monotropic) was 67.5-68.7 °C.

`CCCCc1ccc(C(=O)Oc2ccc(C(F)(F)F)cc2)cc1` [Example 1, p'-trifluoromethylphenyl p-n-butylbenzoate]: the “Temperature (MR) Range of liquid crystal” value (monotropic) stood at 67.8 °C.

For `CCCCCc1ccc(OC(=O)c2ccc(C(F)(F)C(F)(F)C(F)(C(F)(F)F)C(F)(F)F)cc2)cc1` [Example 18], where the note is “monotropic”, the “Temperature (MR) Range of liquid crystal” value is 57-58 °C.
